Test results taken from patent publication US8809550B2, “Androgen receptor antagonists and uses thereof” (priority 2009, dated 2014).

Key:
[1] = test system: Prostate-specific Antigen (PSA) production in LNCaP cells; test: PSA assay: inhibition of PSA production in LNCaP cells (ELISA); type: cell-based; details: Homo sapiens, 72 h, R1881 1 ng/ml, three days, seven point assay
Experimental: (§1) PSA Assay (Inhibition Test of the Compound of the Present Invention on Prostate-Specific Antigen (PSA) Production in Various Prostate Cancer Cells)
(§2) Androgen dependent LNCaP and 22RV1 cells were purchased from the American Type Culture Collection (ATCC, Manassas, Va.). These cells were grown in RPMI 1640 medium supplemented with 10% fetal bovine serum (FBS), 100 U/mL penicillin, 100 μg/mL streptomycin, and 0.25 μg/mL amphotericin B. The cells were maintained at 37° C. and 5% CO2. LNCaP cells between passage 20 and 35, and 22RV1 cells between passage 30 and 50 were used for experiments. LNCaP is a hormone sensitive cell line, while 22RV1 is a hormone refractory prostate cancer cell line, which derived from a primary prostate tumor. This cell line was isolated from a xenograft (CWR22R-2152) that was serially propagated in mice after castration-induced regression and relapse of the parental, androgen-dependent CWR xenograft. For the PSA assay, human prostate cancer cells LNCaP or 22RV1 were seeded in a 96-well plate at a concentration of 5000 cells/100 μl/well. On the following day, Methyltrienolone (R1881, AR agonist) (final concentration 1 ng/ml), test compounds or bicalutamide (Casodex®, AstraZeneca) (final concentration 0.005 to 20 μM) were added. Three days after the addition, the concentration of PSA in the supernatant of the culture solution was measured by ELISA. ELISAs for human PSA in culture medium were performed using the ultra-sensitive assay procedure and reagents in the Active™ PSA assay kit (Diagnostic Systems Laboratories Inc., Webster, Tex.). Culture medium and standards (200 μl/well) were incubated in antibody-coated plates for 2 h at room temperature on a Titer plate shaker at 500-600 rpm. Wells were then washed five times. The HRP conjugate was diluted 1:20 with assay buffer, and 100 μl was added to all wells. The plates were incubated for 30 min at room temperature on the shaker and washed as before, and 100 μl TMB (3,3′,5,5′-tetramethylbenzidine, 0.4 g/l) was added. The plates were incubated for 10 min on the shaker, and the reaction was terminated with 100 μl stop solution. The plates were read using a plate reader at 450 nm with a 650 nm reference filter. PSA levels were normalized for differences in growth of LNCaP or 22RV1 cells following various treatments as determined by the MTS assay. IC50 of PSA was calculated based on a seven point assay (concentrations of tested compound) and expressed as micromolar (uM). Results on 22RV1 cells are shown as percent inhibition at 2 micromolar (uM). ND means not determined

22RV1 cells = test: Cell viability assay, 22RV1 cells; type: cell-based, human; details: Homo sapiens, 22Rv1, 48 h, read-out: Inhibition of cell viability, 22RV1 % inhibition at 2.5 uM
Experimental: (§3) LNCaP and 22RV1 cells were maintained in RPMI 1640 medium supplemented with 10% fetal bovine serum (FBS), 100 U/mL penicillin, 100 μg/mL streptomycin, and 0.25 μg/mL amphotericin B, splitting cells when they reached 80-90% confluence. In order to test compounds, 10,000 cells/well were plated in 96 cell culture plates using 100 ul/well plating medium, cultured overnight at 37° C. in a cell culture incubator. After carefully remove plating medium, 80 ul/well of pre-warmed assay medium was added, followed by adding 10 ul/well test compounds or bicalutamide (final concentration from 20 uM to 0.1 uM), incubated at 37° C. for 30 minutes, then adding 10 ul/well freshly prepared Methyltrienolone (R1881, AR agonist) (final concentration 1 ng/ml) to each well, incubate at 37° C. for 48-hour. At the end of incubation, 20 μl MTT (2.5 mg/ml in PBS) was added to each well, and the cells were further incubated for 2 h at 37 C to allow a complete reaction between the dye and the enzyme mitochondrial dehydrogenase in the viable cells. After removal of the residual dye and medium, 100 μl dimethylsulfoxide was added to each well, and the absorbance at 570 nm was measured with an microplate reader. The fold induction over background by 1 nM R1881 in the absence of test compounds is standardized as 100% and experimental result is expressed as percentage of inhibition by testing compounds at 2.5 micromolar (uM).

C57BL/6 mice = test: C57BL/6 mouse hair growth model; type: in vivo
Source text: C57BL/6 Mouse Hair Growth Model
Six-to 8-wk-old male C57BL/6 mice in the telogen stage of the hair cycle, weighing 15-20 g, were purchased and housed in community cages under standard conditions. The growth phase of the hair cycle (anagen) was induced in the back skin of mice with all follicles in the resting phase of the hair cycle (telogen; as judged from their homogeneously pink skin color) by being shaved on the lower back using an electric shaver under mild anesthesia. Only mice in the telogen phase (pink skin) were used in the studies. Twenty microliters of test article at two concentrations in propylene glycol/ethanol (30:70, v/v) or the vehicle control was topically applied to the shaved lower back of the mice to cover an area of approximately 1 cm^2 (20 uL/cm^2). Five mice were used in each group. The mice were treated with the compound by topical application twice daily (BID) for 4 weeks. Local irritation was recorded daily before each application, and hair growth scores were recorded twice per week. The scoring system for mouse hair growth was 0 to 4: 0=no hair growth, pink skin color; 1=skin color in shaved area changes from pink to gray without visible hair growth, indicating the onset of anagen; 2=skin color in shaved area is black with tiny hairs; 3=short black hair in shaved area; and 4=hair in shaved area is almost close to surrounding area. […]

LNCaP cells = test: Cell viability assay, LNCaP cells; type: cell-based; details: Homo sapiens, LNCaP, 48 h, read-out: Inhibition of cell viability, LNCaP % inhibition at 2.5 uM
Experimental: as §3

[2] = test system: Prostate-specific Antigen (PSA) production in 22RV1 cells; test: PSA assay: inhibition of PSA production in 22RV1 cells (ELISA); type: cell-based; details: Homo sapiens, 72 h, R1881 1 ng/ml, three days
Experimental: as §1
as §2, with “Results on 22RV1 cells are shown as percent inhibition at 2 micromolar (uM).” left out

CNC(=O)c1ccc(N2C(=S)N(c3ccc(C#N)c(C(F)(F)F)c3F)C(=O)C2(C)C)cc1F [Example 12, 4-[3-(4-Cyano-2-fluoro-3-trifluoromethyl-phenyl)-5,5-dimethyl-4-oxo-2-thioxo-imidazolidin-1-yl]-2-fluoro-N-methyl-benzamide]
IC50 [1]: 280 nM
cytotoxicity at 2.5 µM (22RV1 cells): 61%
hair growth stimulation (C57BL/6 mice; topical BID for 4 weeks, 0.2% and 1% in 30% propylene glycol and 70% ethanol, FIG. 1): stimulated hair growth in dose dependent patterns
in vivo activity for promoting hair growth compared to RU-58841 (C57BL/6 mice; topical, compared to reference androgen receptor antagonist RU-58841): better in vivo activity for promoting hair growth
cytotoxicity at 2.5 µM (LNCaP cells): 86%
inhibition at 2 µM [2]: 71%
